# Test results from patent publication US20240391862A1, “(1,4,5-TRISUBSTITUTED-1H-PYRAZOL-3-YL)OXY-2-ALKOXY ALKYL ACIDS AND THEIR DERIVATIVES, THEIR SALTS AND THEIR USE AS HERBICIDAL AGENTS” (Bayer AKtiengesellschaft, priority 2021, published 2024).
# What was measured:
# ABUTH = experiment: Post-emergence herbicidal effect, greenhouse pot test; format: in vivo, Abutilon theophrasti; conditions: visual rating about 3 weeks after treatment
# In short: (§1)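 Greenhouse pot test: weeds and crops sown in sandy loam, sprayed post-emergence at one-leaf stage (2–3 weeks after sowing) with WP or EC formulations plus 0.5% additive at 600 l/ha water, rates 20–320 g/ha. Visual rating about 3 weeks later versus untreated controls (100% = dead, 0% = as control).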
# ALOMY = experiment: as above; format: in vivo, Alopecurus myosuroides; conditions: visual rating about 3 weeks after treatment; for pest or weed control at 80 g/ha / pest or weed control at 320 g/ha: Alopecurus myosuroides, 504 h, read-out: Post-emergence effect against ALOMY
# In short: as §1
# AMARE = experiment: as above; format: in vivo, Amaranthus retroflexus; conditions: Amaranthus retroflexus, 504 h, visual rating about 3 weeks after treatment, read-out: Post-emergence effect against AMARE
# Description: (§2) • ALOMY: Alopecurus myosuroides SETVI: Setaria viridis • AVEFA: Avena fatua POLCO: Fallopia convolvulus • AMARE: Amaranthus retroflexus ECHCG: Echinochloa crus-galli • LOLRJ: Lolium rigidum STEME: Stellaria media • VERPE: Veronica persica MATIN: Tripleurospermum inodorum • DIGSA: Digitaria sanguinalis ABUTH: Abutylon threophrasti • TRZAS: Triticum aestivum VIOTR: Viola tricolor • BRSNW: Brassica napus ZEAMX: Zea mays • PHBPU: Ipomoea purpurea GLXMA: Glycine max • ORYSA: Oryza sativa HORMU: Hordeum murinum
# (§3) Seeds of monocotyledonous and dicotyledonous weeds and crop plants are placed in sandy loam in plastic or organic planting pots, covered with soil and cultivated in a greenhouse under controlled growth conditions. 2 to 3 weeks after sowing, the trial plants are treated at the one-leaf stage. The compounds of the invention, formulated in the form of wettable powders (WP) or as emulsion concentrates (EC), are then sprayed onto the green parts of the plants as aqueous suspension or emulsion with addition of 0.5% additive at a water application rate of 600 l/ha (converted). After the test plants have been kept in the greenhouse under optimum growth conditions for about 3 weeks, the activity of the preparations is rated visually in comparison to untreated controls. For example, 100% activity=the plants have died, 0% activity=like control plants.
# (§4) Tables 20a to 38c below show the effects/crop compatibilities of selected compounds of the general formula (I) on various harmful plants at an application rate corresponding to 20 to 320 g/ha, which were obtained by the trial procedure specified above.
# AVEFA = experiment: as above; format: in vivo, Avena fatua; conditions: visual rating about 3 weeks after treatment; for pest or weed control at 80 g/ha / pest or weed control at 320 g/ha: Avena fatua, 504 h, read-out: Post-emergence effect against AVEFA
# In short: as §1
# ECHCG = experiment: as above; format: in vivo, Echinochloa crus-galli; conditions: for pest or weed control at 80 g/ha / pest or weed control at 320 g/ha: read-out: Post-emergence effect against ECHCG in %
# In short: as §1
# LOLRI = experiment: as above; format: in vivo, Lolium rigidum; conditions: for pest or weed control at 80 g/ha / pest or weed control at 320 g/ha: Lolium rigidum, 504 h, read-out: Post-emergence effect against LOLRI in %
# Description: as §2, §3, §4
# MATIN = experiment: as above; format: in vivo, Tripleurospermum inodorum
# In short: as §1
# PHBPU = experiment: as above; format: in vivo, Ipomoea purpurea; conditions: for pest or weed control at 20 g/ha / pest or weed control at 80 g/ha / pest or weed control at 320 g/ha: Ipomoea purpurea, 504 h, read-out: Post-emergence effect against PHBPU in %
# In short: as §1
# POLCO = experiment: as above; format: in vivo, Fallopia convolvulus
# In short: as §1
# SETVI = experiment: as above; format: in vivo, Setaria viridis
# In short: as §1
# VERPE = experiment: as above; format: in vivo, Veronica persica
# In short: as §1
# VIOTR = experiment: as above; format: in vivo, Viola tricolor
# In short: as §1
# KCHSC = experiment: as above; format: in vivo; conditions: 320 g/ha
# Protocol: as §3, with “plants. Tables 20a to 38c below show the effects/crop compatibilities of selected compounds of the general formula (I) on various harmful plants at an application rate corresponding to 20 to 320 g/ha, which were obtained by the trial procedure specified above.” for “plants.”
# ZEAMX = experiment: Post-emergence herbicidal effect and crop plant compatibility, greenhouse pot test; format: in vivo, Zea mays; conditions: Zea mays, 504 h, 20 g/ha, one-leaf stage, rated visually after about 3 weeks vs untreated controls, read-out: Post-emergence effect at 20 g/ha against ZEAMX in %
# Description: as §2, §3, §4
# DIGSA = experiment: Post-emergence herbicidal effect, greenhouse pot test; format: in vivo, Digitaria sanguinalis; conditions: Digitaria sanguinalis, 504 h, visual rating about 3 weeks after treatment, read-out: Post-emergence effect against DIGSA
# In short: as §1
# [1] = Tripleurospermum inodorum, 504 h, read-out: Post-emergence effect against MATIN in %
# [2] = Abutilon theophrasti, 504 h, 320 g/ha, read-out: Post-emergence effect against ABUTH
# [3] = Echinochloa crus-galli, 504 h, 80 g/ha
# [4] = Echinochloa crus-galli, 504 h, 320 g/ha
# [5] = Tripleurospermum inodorum, 504 h, 320 g/ha, read-out: Post-emergence effect against MATIN in %
# [6] = Setaria viridis, 504 h, 320 g/ha, read-out: Post-emergence effect against SETVI in %
# [7] = Veronica persica, 504 h, 80 g/ha, read-out: Post-emergence effect against VERPE in %
# [8] = Veronica persica, 504 h, 320 g/ha, read-out: Post-emergence effect against VERPE in %
# [9] = Viola tricolor, 504 h, 80 g/ha, read-out: Post-emergence effect against VIOTR in %
# [10] = Viola tricolor, 504 h, 320 g/ha, read-out: Post-emergence effect against VIOTR in %
smiles,measurement,setting,value
COC(Oc1nn(-c2cc(F)ccc2F)c(-c2cncc(F)c2)c1C1CC1)C(=O)O (stereo not drawn) [Example I-110],Post-emergence effect against ABUTH,ABUTH; 20 g/ha,80%
same,Post-emergence effect against ABUTH,ABUTH; 80 g/ha,90%
same,Post-emergence effect against ABUTH,ABUTH; 320 g/ha,90%
same,Post-emergence effect against ALOMY,ALOMY; 320 g/ha,100%
same,pest or weed control at 80 g/ha,ALOMY,80%
same,pest or weed control at 320 g/ha,AMARE,80%
same,Post-emergence effect against AVEFA,AVEFA; 80 g/ha,90%
same,Post-emergence effect against AVEFA,AVEFA; 320 g/ha,90%
same,Post-emergence effect against ECHCG,"ECHCG; 20 g/ha, visual rating about 3 weeks after treatment",90%
same,Post-emergence effect against ECHCG in %,ECHCG; 80 g/ha,90%
same,Post-emergence effect against ECHCG in %,ECHCG; 320 g/ha,90%
same,Post-emergence effect against LOLRI in %,LOLRI; 320 g/ha,90%
same,Post-emergence effect against MATIN in %,MATIN; 320 g/ha,80%
same,pest or weed control at 80 g/ha,MATIN; [1],80%
same,Post-emergence effect against PHBPU in %,PHBPU; 80 g/ha,90%
same,Post-emergence effect against PHBPU in %,PHBPU; 320 g/ha,90%
same,pest or weed control at 20 g/ha,PHBPU,90%
same,Post-emergence effect against POLCO in %,POLCO; 80 g/ha,80%
same,Post-emergence effect against POLCO in %,POLCO; 320 g/ha,90%
same,pest or weed control at 20 g/ha,"POLCO; Fallopia convolvulus, 504 h, 20 g/ha, read-out: Post-emergence effect against POLCO in %",80%
same,Post-emergence effect against SETVI in %,SETVI; 320 g/ha,80%
same,pest or weed control at 80 g/ha,"SETVI; Setaria viridis, 504 h, 80 g/ha, read-out: Post-emergence effect against SETVI in %",80%
same,Post-emergence effect against VERPE in %,VERPE; 20 g/ha,80%
same,Post-emergence effect against VERPE in %,VERPE; 80 g/ha,80%
same,Post-emergence effect against VERPE in %,VERPE; 320 g/ha,90%
same,Post-emergence effect against VIOTR in %,VIOTR; 80 g/ha,80%
same,Post-emergence effect against VIOTR in %,VIOTR; 320 g/ha,80%
same,pest or weed control at 20 g/ha,"VIOTR; Viola tricolor, 504 h, 20 g/ha, read-out: Post-emergence effect against VIOTR in %",80%
same,Post-emergence effect against KCHSC in %,KCHSC,80%
COC(=O)C(OC)Oc1nn(-c2ccccc2)c(-c2ccc(F)nc2)c1Cl (stereo not drawn) [Example I-26],plant injury at 20 g/ha,ZEAMX,20%
same,pest or weed control at 320 g/ha,ABUTH; [2],90%
same,pest or weed control at 80 g/ha,ALOMY,90%
same,pest or weed control at 320 g/ha,ALOMY; 320 g/ha,90%
same,pest or weed control at 20 g/ha,AMARE; 20 g/ha,80%
same,pest or weed control at 80 g/ha,AMARE; 80 g/ha,80%
same,pest or weed control at 320 g/ha,AMARE,80%
same,pest or weed control at 80 g/ha,AVEFA; 80 g/ha,80%
same,pest or weed control at 320 g/ha,AVEFA; 320 g/ha,90%
same,pest or weed control at 80 g/ha,DIGSA; 80 g/ha,80%
same,pest or weed control at 320 g/ha,DIGSA; 320 g/ha,90%
same,pest or weed control at 80 g/ha,ECHCG; [3],80%
same,pest or weed control at 320 g/ha,ECHCG; [4],90%
same,pest or weed control at 80 g/ha,LOLRI,90%
same,pest or weed control at 320 g/ha,LOLRI; 320 g/ha,90%
same,pest or weed control at 20 g/ha,"MATIN; Tripleurospermum inodorum, 504 h, 20 g/ha, read-out: Post-emergence effect against MATIN in %",80%
same,pest or weed control at 80 g/ha,MATIN; [1],80%
same,pest or weed control at 320 g/ha,MATIN; [5],80%
same,pest or weed control at 20 g/ha,PHBPU,80%
same,pest or weed control at 80 g/ha,PHBPU; 80 g/ha,80%
same,pest or weed control at 320 g/ha,PHBPU; 320 g/ha,90%
same,pest or weed control at 320 g/ha,SETVI; [6],90%
same,pest or weed control at 80 g/ha,VERPE; [7],90%
same,pest or weed control at 320 g/ha,VERPE; [8],90%
same,pest or weed control at 80 g/ha,VIOTR; [9],80%
same,pest or weed control at 320 g/ha,VIOTR; [10],80%
COC(Oc1nn(-c2cc(F)ccc2F)c(-c2cncc(F)c2)c1C1CC1)C(=O)O (stereo not drawn) [Example I-109],pest or weed control at 20 g/ha,"ABUTH; Abutilon theophrasti, 504 h, 20 g/ha, read-out: Post-emergence effect against ABUTH",80%
same,pest or weed control at 80 g/ha,"ABUTH; Abutilon theophrasti, 504 h, 80 g/ha, read-out: Post-emergence effect against ABUTH",80%
same,pest or weed control at 320 g/ha,ABUTH; [2],90%
same,pest or weed control at 320 g/ha,ALOMY; 320 g/ha,90%
same,pest or weed control at 80 g/ha,AVEFA; 80 g/ha,80%
same,pest or weed control at 320 g/ha,AVEFA; 320 g/ha,90%
same,pest or weed control at 20 g/ha,"ECHCG; Echinochloa crus-galli, 504 h, 20 g/ha, visual rating about 3 weeks after treatment, read-out: Post-emergence effect against ECHCG",80%
same,pest or weed control at 80 g/ha,ECHCG; [3],90%
same,pest or weed control at 320 g/ha,ECHCG; [4],90%
same,pest or weed control at 80 g/ha,LOLRI,90%
same,pest or weed control at 320 g/ha,LOLRI; 320 g/ha,90%
same,pest or weed control at 320 g/ha,MATIN; [5],80%
same,pest or weed control at 80 g/ha,PHBPU; 80 g/ha,90%
same,pest or weed control at 320 g/ha,PHBPU; 320 g/ha,90%
same,pest or weed control at 80 g/ha,"POLCO; Fallopia convolvulus, 504 h, 80 g/ha, read-out: Post-emergence effect against POLCO in %",80%
same,pest or weed control at 320 g/ha,"POLCO; Fallopia convolvulus, 504 h, 320 g/ha, read-out: Post-emergence effect against POLCO in %",90%
same,pest or weed control at 320 g/ha,SETVI; [6],80%
same,pest or weed control at 20 g/ha,"VERPE; Veronica persica, 504 h, 20 g/ha, read-out: Post-emergence effect against VERPE in %",80%
same,pest or weed control at 80 g/ha,VERPE; [7],80%
same,pest or weed control at 320 g/ha,VERPE; [8],80%
same,pest or weed control at 80 g/ha,VIOTR; [9],90%
same,pest or weed control at 320 g/ha,VIOTR; [10],90%
same,pest or weed control at 320 g/ha,"KCHSC; 504 h, read-out: Post-emergence effect against KCHSC in %",80%
